One compound from paper PMC5072725, “A Novel Diphenylthiosemicarbazide Is a Potential Insulin Secretagogue for Anti-Diabetic Agent” (PLoS ONE, 2016) can be followed below.

The test addresses T1, β-cell KATP channel (human SUR1 and human Kir6.2) (Homo sapiens, UniProt Q09428).
T1 construct: gene ABCC8; SUR1 and Kir6.2 co-expressed in COS-1 cells; with ATP-sensitive inward rectifier potassium channel 11
Briefly: whole-cell patch clamp, inhibition of diazoxide-induced K+ current. The test is classed as cell-based. In general terms: The patch-clamp technique gives a direct electrical read-out from membranes.

SMILES strings stand for the structures.

T1 sequence (Q09428 whole entry): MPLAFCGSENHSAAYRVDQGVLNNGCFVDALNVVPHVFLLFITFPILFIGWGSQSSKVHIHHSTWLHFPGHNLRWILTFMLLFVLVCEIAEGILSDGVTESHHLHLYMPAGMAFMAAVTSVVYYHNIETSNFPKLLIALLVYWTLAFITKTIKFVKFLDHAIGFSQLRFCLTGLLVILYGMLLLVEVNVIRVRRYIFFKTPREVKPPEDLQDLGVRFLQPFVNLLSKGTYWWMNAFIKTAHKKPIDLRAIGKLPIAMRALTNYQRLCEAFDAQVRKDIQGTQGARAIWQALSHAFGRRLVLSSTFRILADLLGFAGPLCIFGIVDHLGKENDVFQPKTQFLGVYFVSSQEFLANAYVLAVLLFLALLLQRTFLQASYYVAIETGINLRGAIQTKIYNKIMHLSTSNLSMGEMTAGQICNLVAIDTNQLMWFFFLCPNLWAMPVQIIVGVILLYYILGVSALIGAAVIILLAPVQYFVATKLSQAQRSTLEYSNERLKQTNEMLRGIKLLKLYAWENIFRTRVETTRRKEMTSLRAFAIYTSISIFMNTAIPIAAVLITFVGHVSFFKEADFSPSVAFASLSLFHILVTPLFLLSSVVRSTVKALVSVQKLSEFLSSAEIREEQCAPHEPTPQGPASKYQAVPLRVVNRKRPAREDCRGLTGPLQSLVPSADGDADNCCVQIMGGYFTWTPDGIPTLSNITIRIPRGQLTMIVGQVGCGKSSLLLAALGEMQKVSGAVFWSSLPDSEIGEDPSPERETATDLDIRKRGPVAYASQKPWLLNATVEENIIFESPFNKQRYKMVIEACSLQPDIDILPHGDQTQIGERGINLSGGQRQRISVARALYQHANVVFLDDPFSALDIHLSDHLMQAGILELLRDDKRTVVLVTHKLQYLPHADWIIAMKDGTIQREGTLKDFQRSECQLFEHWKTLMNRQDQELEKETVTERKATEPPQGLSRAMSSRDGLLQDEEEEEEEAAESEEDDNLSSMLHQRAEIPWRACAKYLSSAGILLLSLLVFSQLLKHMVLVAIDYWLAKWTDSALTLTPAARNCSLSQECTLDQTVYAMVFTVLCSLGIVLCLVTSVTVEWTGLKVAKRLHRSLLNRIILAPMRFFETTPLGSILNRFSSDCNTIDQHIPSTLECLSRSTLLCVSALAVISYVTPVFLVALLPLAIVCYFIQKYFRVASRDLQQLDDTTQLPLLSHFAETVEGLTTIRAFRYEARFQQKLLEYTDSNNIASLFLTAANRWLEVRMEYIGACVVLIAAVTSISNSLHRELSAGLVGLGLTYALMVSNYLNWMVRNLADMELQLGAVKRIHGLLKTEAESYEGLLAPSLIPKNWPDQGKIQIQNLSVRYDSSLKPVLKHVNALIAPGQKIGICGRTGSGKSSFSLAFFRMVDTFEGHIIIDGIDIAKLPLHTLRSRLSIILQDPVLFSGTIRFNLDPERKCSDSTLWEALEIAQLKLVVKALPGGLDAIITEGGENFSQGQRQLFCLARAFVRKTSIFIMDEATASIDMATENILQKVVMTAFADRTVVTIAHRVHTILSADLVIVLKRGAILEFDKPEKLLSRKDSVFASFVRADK
T1 sequence (Q14654 whole entry partner): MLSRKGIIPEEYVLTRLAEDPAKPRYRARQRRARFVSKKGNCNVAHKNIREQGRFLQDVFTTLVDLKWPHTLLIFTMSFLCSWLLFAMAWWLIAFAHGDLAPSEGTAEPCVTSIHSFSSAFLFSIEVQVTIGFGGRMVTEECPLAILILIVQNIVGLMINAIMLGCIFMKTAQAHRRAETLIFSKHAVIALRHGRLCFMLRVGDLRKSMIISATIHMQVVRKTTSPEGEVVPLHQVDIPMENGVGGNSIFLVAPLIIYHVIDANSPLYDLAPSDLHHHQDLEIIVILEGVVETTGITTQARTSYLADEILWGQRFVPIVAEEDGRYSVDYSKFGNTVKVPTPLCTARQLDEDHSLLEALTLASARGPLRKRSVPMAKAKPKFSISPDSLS

The compound `Cc1ccc(S(=O)(=O)NC(=O)NN2CC3CCCC3C2)cc1` (stereo not shown) [gliclazide] gave an IC50 of 860 nM.

The IC50 is the point on the concentration scale where inhibition reaches its midpoint. Low readings indicate higher potency, high ones lower potency.
